Among the data in ChEMBL document CHEMBL6115042, “Hydroquinazoline Derivatives as Novel Natriuretic Peptide Receptor 1 (NPR1) Activators” (ACS Med Chem Lett, 2025) are AC50 values, retold here.

Broadly, the AC50 is the midpoint of the concentration-response curve, whichever way the signal moves.

Experiment [1] concerns the target T1, Atrial natriuretic peptide receptor 1 (Homo sapiens, UniProt P16066).
T1 sequence (P16066 whole entry): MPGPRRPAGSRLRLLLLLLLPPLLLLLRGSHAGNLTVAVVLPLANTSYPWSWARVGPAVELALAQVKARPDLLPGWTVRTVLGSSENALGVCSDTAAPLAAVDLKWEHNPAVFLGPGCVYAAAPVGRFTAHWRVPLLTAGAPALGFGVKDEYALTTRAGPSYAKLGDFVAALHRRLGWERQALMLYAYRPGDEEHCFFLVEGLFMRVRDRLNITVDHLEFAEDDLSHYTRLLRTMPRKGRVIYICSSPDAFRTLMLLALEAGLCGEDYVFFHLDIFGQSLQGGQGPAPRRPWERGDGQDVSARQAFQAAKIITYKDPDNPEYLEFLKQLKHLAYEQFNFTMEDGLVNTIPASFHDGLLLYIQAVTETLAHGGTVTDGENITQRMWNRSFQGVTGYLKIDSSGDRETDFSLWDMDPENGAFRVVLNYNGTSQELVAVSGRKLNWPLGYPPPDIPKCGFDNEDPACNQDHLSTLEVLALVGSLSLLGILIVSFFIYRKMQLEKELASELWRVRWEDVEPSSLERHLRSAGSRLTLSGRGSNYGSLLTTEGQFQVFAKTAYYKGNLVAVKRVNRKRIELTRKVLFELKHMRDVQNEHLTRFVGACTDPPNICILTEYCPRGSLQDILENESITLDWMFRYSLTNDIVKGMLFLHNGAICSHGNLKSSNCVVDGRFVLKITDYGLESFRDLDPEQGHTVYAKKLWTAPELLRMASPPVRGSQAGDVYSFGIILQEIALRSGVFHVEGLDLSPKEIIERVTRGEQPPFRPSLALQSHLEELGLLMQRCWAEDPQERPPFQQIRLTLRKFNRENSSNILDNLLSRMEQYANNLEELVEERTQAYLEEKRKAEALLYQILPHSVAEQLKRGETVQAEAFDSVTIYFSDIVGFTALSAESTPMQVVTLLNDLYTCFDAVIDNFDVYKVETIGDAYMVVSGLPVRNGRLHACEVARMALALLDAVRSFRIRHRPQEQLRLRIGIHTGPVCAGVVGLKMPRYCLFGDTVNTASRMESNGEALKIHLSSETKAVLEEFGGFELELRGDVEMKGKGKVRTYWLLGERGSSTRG
The experiment can be described thus: Activation of human NPR1 expressed in CHO-K1 cells assessed as increase in cGMP production measured after 30 mins by HTRF assay. The format is cell-based. In general terms: In TR-FRET formats the signal depends on donor and acceptor labels being close together.

A short description of experiment [2]: Activation of monkey NPR1 expressed in CHO-K1 cells assessed as increase in cGMP production measured after 30 mins by HTRF assay. The following applies: Macaca mulatta, CHO-K1, 0.5 h. The format is cell-based.

The structures appear in SMILES notation.

In the case of `CC[C@@H](Nc1nc2c(c(N[C@@H](CN3CCCCCC3)c3cnn(C)c3)n1)C[C@H](c1cccc(F)c1)CC2)C1CCC(C(=O)O)CC1` (some centres undefined), the AC50 in experiment [1] came out at 66 nM; in experiment [2] it was 45 nM. On to `CC[C@@H](Nc1nc2c(c(N[C@@H](CN3CCC[C@H](C)C3)c3cnn(C)c3)n1)C[C@](C)(c1ccc(F)cc1)CC2)C1CCC(C(=O)O)CC1` (some centres undefined), for which the values for the AC50 in experiment [1] and in experiment [2] were 72 nM and 68 nM, respectively. For `CC[C@@H](Nc1nc2c(c(N[C@@H](CN3CCC[C@H](C)C3)c3cnn(C)c3)n1)C[C@](C)(c1cccc(F)c1)CC2)C1CCC(C(=O)O)CC1` (some centres undefined), the values for the concentration at half-maximal activity (AC50) in experiment [1] and in experiment [2] were 42 nM and 44 nM, respectively.

On to `CC[C@@H](N(C)c1nc2c(c(N[C@@H](CN3CCCCCC3)c3cnn(C)c3)n1)C[C@H](c1cccc(F)c1)CC2)C12CC(C(=O)O)(C1)C2`, for which, in experiment [2], the AC50 turned out to be 10 nM. With `CC[C@@H](Nc1nc2c(c(N[C@@H](CN3C4CCCC3CC4)c3ccccc3)n1)C[C@H](c1ccccc1)CC2)[C@H]1CC[C@H](C(=O)O)CC1`, the AC50 in experiment [2] amounted to 138 nM.

Turning to `CC[C@H]([C@H]1CC[C@H](C(=O)O)CC1)N(C)c1nc2c(c(N[C@@H](CN3C4CCCC3CC4)c3ccn(C)n3)n1)C[C@H](c1cccc(F)c1)CC2`, the AC50 in experiment [2] was 272 nM.
